# Measured values as given in PubChem BioAssay (NCI).
#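 A five-concentration, 48-hour dose response in 96-well plates underlies each endpoint, interpolated linearly between surrounding concentrations. At the GI50, growth is halved. Definition used: TGI = concentration required for complete inhibition of growth.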
# What was measured:
# Experiment in all cases: NCI anticancer screen, dose series, 48 h
# TK-10 renal = test system: TK-10 renal
# HCT-116 colon = test system: HCT-116 colon
# SF-539 CNS = test system: SF-539 CNS
# K-562 leukemia = test system: K-562 leukemia
# OVCAR-5 ovarian = test system: OVCAR-5 ovarian
# SK-MEL-2 melanoma = test system: SK-MEL-2 melanoma
# NCI-H522 lung = test system: NCI-H522 lung
# SK-MEL-5 melanoma = test system: SK-MEL-5 melanoma
# SK-OV-3 ovarian = test system: SK-OV-3 ovarian
# U251 CNS = test system: U251 CNS
# DU-145 prostate = test system: DU-145 prostate
# NCI/ADR-RES ovarian = test system: NCI/ADR-RES ovarian
# UACC-62 melanoma = test system: UACC-62 melanoma
# NCI-H460 lung = test system: NCI-H460 lung
# HCT-15 colon = test system: HCT-15 colon
# NCI-H226 lung = test system: NCI-H226 lung
# OVCAR-4 ovarian = test system: OVCAR-4 ovarian
# RXF 393 renal = test system: RXF 393 renal
# OVCAR-3 ovarian = test system: OVCAR-3 ovarian
# MCF7 breast = test system: MCF7 breast
# UO-31 renal = test system: UO-31 renal
# SF-268 CNS = test system: SF-268 CNS
# HCC-2998 colon = test system: HCC-2998 colon
# MALME-3M melanoma = test system: MALME-3M melanoma
# HT29 colon = test system: HT29 colon
# SK-MEL-28 melanoma = test system: SK-MEL-28 melanoma
# SR leukemia = test system: SR leukemia
# T-47D breast = test system: T-47D breast
# SNB-75 CNS = test system: SNB-75 CNS
smiles,measurement,setting,value
COC(=O)c1c2c(c(C)[n+]([O-])c1C)C(=O)C=C(NCc1ccc(Cl)cc1)C2=O,GI50,TK-10 renal,2.95 µM
same,TGI,TK-10 renal,8.2 µM
same,GI50,HCT-116 colon,0.249 µM
same,TGI,HCT-116 colon,1.05 µM
same,GI50,SF-539 CNS,0.733 µM
same,TGI,SF-539 CNS,1.98 µM
same,GI50,K-562 leukemia,0.0478 µM
same,TGI,K-562 leukemia,5.25 µM
same,GI50,OVCAR-5 ovarian,1.29 µM
same,TGI,OVCAR-5 ovarian,2.78 µM
same,GI50,SK-MEL-2 melanoma,1.05 µM
same,TGI,SK-MEL-2 melanoma,2.73 µM
same,GI50,NCI-H522 lung,0.508 µM
same,TGI,NCI-H522 lung,2.04 µM
same,GI50,SK-MEL-5 melanoma,0.176 µM
same,TGI,SK-MEL-5 melanoma,0.337 µM
same,GI50,SK-OV-3 ovarian,1.85 µM
same,TGI,SK-OV-3 ovarian,4.64 µM
same,GI50,U251 CNS,0.598 µM
same,TGI,U251 CNS,1.88 µM
same,GI50,DU-145 prostate,1.09 µM
same,TGI,DU-145 prostate,2.32 µM
same,GI50,NCI/ADR-RES ovarian,0.31 µM
same,TGI,NCI/ADR-RES ovarian,3.22 µM
same,GI50,UACC-62 melanoma,0.046 µM
same,TGI,UACC-62 melanoma,1.02 µM
same,GI50,NCI-H460 lung,0.397 µM
same,TGI,NCI-H460 lung,1.71 µM
same,GI50,HCT-15 colon,0.183 µM
same,TGI,HCT-15 colon,1.74 µM
same,GI50,NCI-H226 lung,1.43 µM
same,TGI,NCI-H226 lung,3.52 µM
same,GI50,OVCAR-4 ovarian,0.229 µM
same,TGI,OVCAR-4 ovarian,1.03 µM
same,GI50,RXF 393 renal,1.22 µM
same,TGI,RXF 393 renal,2.53 µM
same,GI50,OVCAR-3 ovarian,0.208 µM
same,TGI,OVCAR-3 ovarian,0.625 µM
same,GI50,MCF7 breast,0.267 µM
same,TGI,MCF7 breast,0.98 µM
same,GI50,UO-31 renal,1.16 µM
same,TGI,UO-31 renal,2.66 µM
same,GI50,SF-268 CNS,0.747 µM
same,TGI,SF-268 CNS,2.96 µM
same,GI50,HCC-2998 colon,0.354 µM
same,TGI,HCC-2998 colon,1.55 µM
same,GI50,MALME-3M melanoma,0.157 µM
same,TGI,MALME-3M melanoma,0.381 µM
same,GI50,HT29 colon,0.271 µM
same,TGI,HT29 colon,> 26.6 µM
same,GI50,SK-MEL-28 melanoma,0.733 µM
same,TGI,SK-MEL-28 melanoma,2.59 µM
same,GI50,SR leukemia,0.733 µM
same,TGI,SR leukemia,7.91 µM
same,GI50,T-47D breast,0.151 µM
same,TGI,T-47D breast,1.7 µM
same,GI50,SNB-75 CNS,1.65 µM
same,TGI,SNB-75 CNS,3.03 µM
